Where “and” joins values, the source holds several entries; their conditions need not be identical. Identical values can stand only once. Like-named read-outs stand apart in the source and are kept apart here.
Legend:
patients [1] = type: in vivo, human
[2] = test system: patients with normal coronary reserve; assay: Priming dose effect: time to peak and return to baseline, concurrent administration (Example 4); type: in vivo, human; settings: for Time to peak, individual patients / Return to BL, individual patients / Return to BL, Mean / Return to BL, Total / Time to peak, Mean / Time to peak, Total: N = 6; for Time to peak, individual patients / Return to BL, individual patients: listed as ADE; for Time to peak (near maximal hyperemia): adenosine alone vs concurrent combination without priming dose, on average
Text: As a test, a low priming dose of dipyridamole was combined with the concurrent administration of the two drugs to determine whether the time to peak and the occurrence of near maximal hyperaemia could be accelerated, especially when infusion time is reduced by, for example, one minute.

patients [3] = settings: most frequently reported adverse effects with adenosine; cited from earlier work
coronary patients = assay: Tolerance, severity of main symptoms (Example 3); type: in vivo, human
Text: Primary efficacy end-points were peak and mean diastolic flow velocities (their measurements reflect coronary blood flow values). The secondary end-point was patient's tolerance to the procedure.

patients [4] = assay: Priming dose effect with the sequential administration mode (Example 5); type: in vivo, human; settings: N = 10
Text: Again there was no difference between the two methods for both peak and mean velocities.

[5] = test system: patients suffering from ischemic heart disease; assay: Transthoracic doppler echocardiography (TTDE) blood flow velocity in LAD, sequential administration (Example 1); type: in vivo, human; settings: mean; for Mean velocity Min / Peak velocity Min: at rest (basal); for Mean velocity Max / Peak velocity Max: under stress
Method: In the combined administration, each of the two agents was administered at a dosage lower than its clinically preferred dosage when used as a single agent for myocardial perfusion imaging. Effects were measured using noninvasive transthoracic doppler echocardiography (TTDE).
Primary efficacy end-points were peak and mean diastolic flow velocities (measured as reflecting coronary blood flow values). The secondary end-point was patient tolerance to the procedure. The protocol was designed as follows.
Forty (40) consecutive patients suffering from ischemic heart disease were enrolled. Each patient served as their own control.
[…] Total doses are between about 4-6% of the lowest single-agent total dose of dipyridamole (i.e., 0.56 mg/kg, infused over a total of 4 minutes).
This dose is half the standard single-agent dosage rate of 140 μg/kg/min.

[6] = DIP dose 35 μg/kg, ADE 140 μg/kg/min, listed as ADE
[7] = DIP dose 40 μg/kg, ADE 140 μg/kg/min, listed as ADE
[8] = ADE vs C concurrent with dipyridamole priming dose (0.1 mg)
[9] = with dipyridamole priming dose (0.1 mg)
[10] = without dipyridamole priming dose
[11] = adenosine 70 μg/kg/min + dipyridamole 10 μg/kg/min vs adenosine 140 μg/kg/min, 2 min
[12] = before infusion, DIP5: SC = dipyridamole 28 μg/kg + adenosine 70 μg/kg/min, ADE = adenosine 140 μg/kg/min, 30 patients
[13] = DIP4: SC = dipyridamole 35 μg/kg + adenosine 70 μg/kg/min, ADE = adenosine 140 μg/kg/min, 5 patients
[14] = DIP6: SC = dipyridamole 23 μg/kg + adenosine 70 μg/kg/min, ADE = adenosine 140 μg/kg/min, 5 patients
[15] = DIP4: SC = dipyridamole 35 μg/kg IV bolus then adenosine 70 μg/kg/min, ADE = adenosine alone 140 μg/kg/min, 5 patients
[16] = DIP5: SC = dipyridamole 28 μg/kg IV bolus then adenosine 70 μg/kg/min 3 min, ADE = adenosine alone 140 μg/kg/min 3 min, 30 patients
[17] = DIP6: SC = dipyridamole 23 μg/kg IV bolus then adenosine 70 μg/kg/min, ADE = adenosine alone 140 μg/kg/min, 5 patients
[18] = cumulated, all 40 patients: SC = dipyridamole 23, 28 or 35 μg/kg bolus then adenosine 70 μg/kg/min, ADE = adenosine alone 140 μg/kg/min

SMILES: Nc1ncnc2c1ncn2[C@@H]1O[C@H](CO)[C@@H](O)[C@H]1O [adenosine]
- MV Min, individual patients (patients [1]; [6]): 21 cm/s and 23 cm/s
- PV Min, individual patients (patients [1]; [6]): 25 cm/sec and 32 cm/sec
- PV Max, individual patients (patients [1]; DIP dose 40 μg/kg bolus alone, ADE 140 μg/kg/min 3 min, listed as ADE): 92 cm/sec and 112 cm/sec
- PV Min, individual patients (patients [1]; DIP dose 40 μg/kg, ADE 140 μg/kg/min): 33 cm/sec
- MV Max, individual patients (patients [1]; [7]): 67 cm/s and 86 cm/s
- MV Min, individual patients (patients [1]; [7]): 23 cm/s and 25 cm/s
- Time to peak, individual patients ([2]; ADE 140 μg/kg/min vs C (Dip 10 μg/kg/min + Ade 70 μg/kg/min) concurrent without dipyridamole priming dose): 56 s and 120 s and 50 s and 85 s and 80 s and 75 s
- Return to BL, individual patients ([2]; ADE 140 μg/kg/min vs C concurrent without dipyridamole priming dose): 75 seconds and 60 seconds (3×) and 100 seconds and 48 seconds
- Return to BL, individual patients [2, 8]: 55 s and 65 s and 54 s and 67 s and 48 s and 60 s
- Time to peak, individual patients [2, 8]: 74 s and 55 s and 45 s and 44 s and 30 s and 40 s
- Time to peak (near maximal hyperemia) [2]: about 1 minute
- Time to peak (near maximal hyperemia) ([2]; listed as Adenoscan): ~1 min
- Return to BL, Mean [2, 9]: 58.1 s
- Return to BL, Total [2, 9]: 349 s
- Time to peak, Mean [2, 9]: 48 s
- Time to peak, Total [2, 9]: 288 s
- Return to BL, Mean [2, 10]: 67.1 s
- Return to BL, Total [2, 10]: 403 s
- Time to peak, Mean [2, 10]: 69.3 s
- Time to peak, Total [2, 10]: 416 s
- Frequency of chest pain or chest discomfort (patients [3]): 40%
- Frequency of gastrointestinal discomfort (patients [3]): 13%
- Frequency of throat or neck or jaw discomfort (patients [3]): 15%
- Patients who experienced thoracic discomfort (coronary patients; Example 3 series): 4 patients
- Severity of chest pain (coronary patients; [11]): 0.68 ± 1.87
- Severity of dyspnea (coronary patients; [11]): 3.64 ± 3.67
- Severity of flushing (coronary patients; [11]): 4.50 ± 3.15
- Return to BL, individual patients (patients [4]; ADE 140 μg/kg/min vs C sequential (Dip 40 μg/kg + Ade 70 μg/kg/min), listed as ADE): 30 seconds (2×) and 60 seconds (3×) and 50 seconds and 35 seconds (2×) and 40 seconds and 28 seconds
- Time to peak, individual patients (patients [4]; ADE 140 μg/kg/min vs C sequential (Dip 40 μg/kg bolus + Ade 70 μg/kg/min over 2 minutes), listed as ADE): 70 seconds and 50 seconds (2×) and 75 seconds and 60 seconds (2×) and 35 seconds and 38 seconds and 90 seconds and 40 seconds
- Return to BL, Mean (patients [4]; sequential administration): 43 s
- Return to BL, Total (patients [4]; sequential administration): 428 s
- Time to peak, Mean (patients [4]; sequential administration): 57 s
- Time to peak, Total (patients [4]; sequential administration): 568 s
- Mean velocity Min [5, 12]: 23.1 cm/s
- Peak velocity Min [5, 12]: 30.6 cm/sec
- Mean velocity Min [5, 13]: 22.2 cm/s
- Peak velocity Min [5, 13]: 28 cm/sec
- Mean velocity Min [5, 14]: 28.2 cm/s
- Peak velocity Min [5, 14]: 37.6 cm/sec
- Mean velocity Min ([5]; cumulated, all 40 patients): 23.7 cm/s
- Peak velocity Min ([5]; cumulated, all 40 patients): 31.2 cm/sec
- Mean velocity Max [5, 15]: 60.4 cm/s
- Peak velocity Max [5, 15]: 80 cm/sec
- Mean velocity Max [5, 16]: 61.4 cm/s
- Peak velocity Max [5, 16]: 82.6 cm/sec
- Mean velocity Max [5, 17]: 80.2 cm/s
- Peak velocity Max [5, 17]: 107 cm/sec
- Mean velocity Max [5, 18]: 63.6 cm/s
- Peak velocity Max [5, 18]: 85.3 cm/sec

From patent US20090185973A1, “METHODS, COMPOSITIONS, UNIT DOSAGE FORMS, AND KITS FOR PHARMACOLOGIC STRESS TESTING WITH REDUCED SIDE EFFECTS” (ADENOBIO N.V., priority 2008, published 2009)
